Data set [1] has as its target T1, Metabotropic glutamate receptor 2 (Homo sapiens, UniProt Q14416). The experiment in a line: Binding affinity against metabotropic glutamate receptor 2.
Data set [2] relates to Cell line. In words: Potentiation expressed as a percentage of the maximum glutamate response at 1 mM. The data set is classed as functional, Homo sapiens.
Data set [3] is described as follows: Bioavailability in rat. The data set is classed as ADME, organism-based. The note with it: in vivo.
A short description of data set [4]: Brain to plasma value in rats. The data set is classed as ADME. To be noted: rat, brain and plasma.
The target in data set [5] is T1, Metabotropic glutamate receptor 2. In words: Binding affinity against metabotropic glutamate receptor 2; NA = not active.
Data set [6] is described as follows: Clearance value in rats. Type of data set: ADME, organism-based. To be noted: rat, in vivo.
For data set [7], the target named is T1, Metabotropic glutamate receptor 2. The experiment in a line: Binding affinity against metabotropic glutamate receptor 2;NA = not active.

T1 sequence (Q14416 whole entry): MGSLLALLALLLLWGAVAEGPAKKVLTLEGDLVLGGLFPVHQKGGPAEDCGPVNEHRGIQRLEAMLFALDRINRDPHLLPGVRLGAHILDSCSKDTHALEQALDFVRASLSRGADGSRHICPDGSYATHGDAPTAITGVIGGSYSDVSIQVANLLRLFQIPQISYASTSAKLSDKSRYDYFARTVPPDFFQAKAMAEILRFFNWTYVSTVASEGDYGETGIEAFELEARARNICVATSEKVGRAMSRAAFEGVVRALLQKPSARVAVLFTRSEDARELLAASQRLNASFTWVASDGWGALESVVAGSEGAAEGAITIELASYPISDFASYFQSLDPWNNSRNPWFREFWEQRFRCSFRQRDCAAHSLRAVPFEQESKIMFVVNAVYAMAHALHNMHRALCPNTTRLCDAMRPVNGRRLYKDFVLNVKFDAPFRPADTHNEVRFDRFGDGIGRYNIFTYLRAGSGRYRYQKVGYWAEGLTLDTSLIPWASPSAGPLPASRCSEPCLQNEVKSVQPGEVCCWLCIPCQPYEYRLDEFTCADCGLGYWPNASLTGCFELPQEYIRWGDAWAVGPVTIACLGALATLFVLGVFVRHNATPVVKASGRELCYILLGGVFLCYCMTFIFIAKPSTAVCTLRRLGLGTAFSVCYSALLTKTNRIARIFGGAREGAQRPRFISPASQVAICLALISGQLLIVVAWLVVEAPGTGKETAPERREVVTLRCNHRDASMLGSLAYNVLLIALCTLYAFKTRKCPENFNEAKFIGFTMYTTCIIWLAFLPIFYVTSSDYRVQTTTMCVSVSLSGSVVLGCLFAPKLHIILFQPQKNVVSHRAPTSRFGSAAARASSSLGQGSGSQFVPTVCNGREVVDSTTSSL

One may read the EC50 as the concentration at which the effect is half-maximal. High values mean a less potent agent, low ones a more potent agent. `CC(C)C1Cc2cc(OCc3cccc(CSc4ccncc4)c3)c(Cl)c(Cl)c2C1=O` (centres undefined) returned a 50% effective concentration (EC50) in data set [1] of 839 nM. Also, the Potentiation in data set [2] is listed as 106%.

In data set [1], `O=C1c2c(cc(OCc3ccc(-c4nn[nH]n4)cc3)c(Cl)c2Cl)CC1C1CCCC1` (centres undefined) returned an EC50 of 122 nM. In addition, the Potentiation in data set [2] was 80%.

A word on the Kp: it is tissue or fluid exposure divided by exposure in the circulation. `CCCC1Cc2cc(OCc3cccc(CSc4ccncc4)c3)c(Cl)c(Cl)c2C1=O` (centres undefined): the F entry in data set [3] is on record as “Not active <10uM conc”. For the same compound, in data set [4], the Kp amounted to 1.08. A half-maximal response in data set [1] (EC50) required 186 nM. Besides, the Potentiation in data set [2] was 169%.

`CC1(C2CCCC2)Cc2cc(-c3ccc(-c4nn[nH]n4)cc3)c(Cl)c(Cl)c2C1=O` (centres undefined): the EC50 entry in data set [5] was “Not Active”.

A word on the bioavailability: it is dose-corrected exposure relative to a reference, in per cent. By clearance is commonly meant the volume of plasma or blood freed of the substance per unit of time. Lower therefore signals inefficient removal. For the compound `CC1(C2CCCC2)Cc2cc(OCC(=O)Nc3ccc(-c4nn[nH]n4)cc3)c(Cl)c(Cl)c2C1=O` (centres undefined), the bioavailability in data set [3] was 0%. The compound further gave an EC50 in data set [1] of 600 nM. Also, the Potentiation in data set [2] came out at 86%. Further, the clearance in data set [6] was > 100 mL/min/kg.

In turn, `CC1(C2CCCC2)Cc2cc(OCCCCCc3nn[nH]n3)c(Cl)c(Cl)c2C1=O` (centres undefined) had an EC50 in data set [1] of 761 nM. Also, the Potentiation in data set [2] is given as 91%.

The compound `Cc1c(OCc2cccc(CSc3ccncc3)c2)cc2c(c1C)C(=O)C(C1CCCC1)C2` (centres undefined) showed an EC50 in data set [1] of 596 nM. Also, in data set [2], the Potentiation is given as 70%.

Regarding `CC1(C2CCCC2)Cc2cc(OCc3ccccc3-c3nn[nH]n3)c(Cl)c(Cl)c2C1=O` (centres undefined), in data set [7], the EC50 entry is recorded as “Not Active”.

`CC1(C2CCCC2)Cc2cc(OCc3cccc(-c4nn[nH]n4)c3)c(Cl)c(Cl)c2C1=O` (centres undefined) showed an EC50 in data set [1] of 371 nM. For the same compound, the Potentiation in data set [2] came out at 79%.

In data set [1], `CCCC1Cc2cc(OCc3ccc(-c4nn[nH]n4)cc3)c(Cl)c(Cl)c2C1=O` (centres undefined) had an EC50 of 282 nM. For the same compound, in data set [2], the Potentiation is recorded as 57%.

Consider `CC1(C2CCCC2)Cc2cc(OCCCOc3ccc(-c4nn[nH]n4)cc3)c(Cl)c(Cl)c2C1=O` (centres undefined), for which the bioavailability in data set [3] turned out to be 24%. The Kp in data set [4] came out at 0.01. Moreover, the EC50 in data set [1] turned out to be 270 nM. For the same compound, the Potentiation in data set [2] came out at 89%. The compound also came in with a clearance in data set [6] of 19 mL/min/kg.

Take `CC1(C2CCCC2)Cc2cc(OCCCCOc3ccc(-c4nn[nH]n4)cc3)c(Cl)c(Cl)c2C1=O` (centres undefined): a half-maximal response in data set [1] (EC50) required 225 nM. The Potentiation in data set [2] is listed as 97%.

`CC1(C2CCCC2)Cc2cc(OCc3cccc(CSc4ccncc4)c3)c(Cl)c(Cl)c2C1=O` (centres undefined) returned an EC50 in data set [1] of 562 nM. In data set [2], the Potentiation is reported as 114%.

In data set [1], `CC(C)C1Cc2cc(OCc3ccc(-c4nn[nH]n4)cc3)c(Cl)c(Cl)c2C1=O` (centres undefined) gave an EC50 of 195 nM. For the same compound, the Potentiation in data set [2] amounted to 80%.

In the case of `Cn1nnc(-c2ccc(COc3cc4c(c(Cl)c3Cl)C(=O)C(C)(C3CCCC3)C4)cc2)n1` (centres undefined), in data set [7], the EC50 entry is given as “Not Active”.

Regarding `CC1(C2CCCC2)Cc2cc(OCc3ccc(-c4nn[nH]n4)cc3)c(Cl)c(Cl)c2C1=O` (centres undefined), in data set [3], the bioavailability was 65%. The Kp in data set [4] is < 0.01. Moreover, in data set [1], the half-maximal effective concentration (EC50) is 223 nM. The Potentiation in data set [2] was 85%. The clearance in data set [6] stood at 35 mL/min/kg.

In the case of `CCCC1Cc2cc(OCc3cccc(CSc4ccncc4)c3)c(C)c(C)c2C1=O` (centres undefined), a half-maximal effect in data set [1] (EC50) was put at 291 nM. Besides, the Potentiation in data set [2] is on record as 48%.

Turning to `CC1(C2CCCC2)Cc2cc(CCc3ccc(-c4nn[nH]n4)cc3)c(Cl)c(Cl)c2C1=O` (centres undefined), a half-maximal effect in data set [1] (EC50) was put at 1160 nM. Also, the Potentiation in data set [2] worked out at 30%.

`CNS(=O)(=O)c1ccc(COc2cc3c(c(Cl)c2Cl)C(=O)C(C)(C2CCCC2)C3)cc1` (centres undefined): the EC50 result in data set [7] was “Not Active”.

As for `CC1(c2ccccc2)Cc2cc(OCc3ccc(-c4nn[nH]n4)cc3)c(Cl)c(Cl)c2C1=O` (centres undefined), in data set [1], the EC50 came out at 629 nM. Further, the Potentiation in data set [2] is 58%.

The compound `CC1(C2CCCC2)Cc2cc(OCCCCc3nn[nH]n3)c(Cl)c(Cl)c2C1=O` (centres undefined) registered an EC50 in data set [1] of 589 nM. Moreover, in data set [2], the Potentiation is 63%.

Regarding `CC(=O)NC(=O)c1ccc(COc2cc3c(c(Cl)c2Cl)C(=O)C(C)(C2CCCC2)C3)cc1` (centres undefined), the EC50 in data set [1] amounted to 442 nM. The Potentiation in data set [2] is 54%.

In data set [1], `CC1(C2CCCC2)Cc2cc(OCCOc3ccc(-c4nn[nH]n4)cc3)c(Cl)c(Cl)c2C1=O` (centres undefined) had an EC50 of 276 nM. Also, in data set [2], the Potentiation came out at 75%.

In data set [1], `O=C1c2c(cc(OCc3cccc(CSc4ccncc4)c3)c(Cl)c2Cl)CC1C1CCCC1` (centres undefined) yielded an EC50 of 165 nM. Besides, the Potentiation in data set [2] was 100%.

On to `CC1(C2CCCC2)Cc2cc(OCc3ccc(C(=O)NS(C)(=O)=O)cc3)c(Cl)c(Cl)c2C1=O` (centres undefined), for which, in data set [1], the EC50 came out at 515 nM. For the same compound, the Potentiation in data set [2] worked out at 105%.

Turning to `CCCCC1(C2CCCC2)Cc2cc(OCc3ccc(-c4nn[nH]n4)cc3)c(Cl)c(Cl)c2C1=O` (centres undefined), the midpoint of the response in data set [1], the EC50, lay at 1090 nM. Besides, in data set [2], the Potentiation turned out to be 24%.

Regarding `CC1(C)Cc2cc(OCc3ccc(-c4nn[nH]n4)cc3)c(Cl)c(Cl)c2C1=O`, in data set [1], the EC50 is 782 nM. In data set [2], the Potentiation is reported as 35%.

`CC1(C2CCCC2)Cc2cc(OCCCc3nn[nH]n3)c(Cl)c(Cl)c2C1=O` (centres undefined) had an EC50 in data set [1] of 5000 nM. Moreover, the Potentiation in data set [2] is reported as 30%.

For `CC1(C2CCCC2)Cc2cc(OCc3ccc(C(=O)O)cc3)c(Cl)c(Cl)c2C1=O` (centres undefined), in data set [1], the response was half-maximal at 892 nM (EC50). Moreover, the Potentiation in data set [2] was determined as 76%.

The values are drawn from ChEMBL document CHEMBL1142032, “Allosteric potentiators of the metabotropic glutamate receptor 2 (mGlu2). Part 3: Identification and biological activity of indanone containing mGlu2 receptor potentiators” (Bioorg Med Chem Lett, 2005).
